The data set is described as follows: Biochemical analysis of CFZ in tissues. In kind it is in vivo. As to conditions: clodronate-treated mice versus PBS. The protocol: Mice were fed CFZ or a control diet continuously for a four week period. Following two weeks of feeding, liposome treatment began for two weeks. After completing four weeks of feeding and two weeks of liposome treatment, the mice were sacrificed and tissues were collected.
The concentration of CFZ in organs was determined spectrophotometrically. After four weeks of CFZ- or vehicle-diet treatment, mice were euthanized via CO2 asphyxiation, and blood and organs were collected. Tissue (20-30 mg) was homogenized in 500 μL of RIPA buffer, and 350 μL of homogenate was removed drug was extracted with three passes of 1 mL of xylenes. The drug was then extracted from the xylene with three 1 mL passes of 9M sulfuric acid. The concentration of CFZ present in the tissue was then determined using a plate reader at wavelength 450 nm.

Take `CC(C)N=c1cc2n(-c3ccc(Cl)cc3)c3ccccc3nc-2cc1Nc1ccc(Cl)cc1` [CFZ, 3-(p-chloroanilino)-10-(p-chlorophenyl)-2, 10-dihydro-2-isopropyliminophenazine]: the “reduction in the total amount of drug found in the liver” value is recorded as 75±7% and the “reduction in the total amount of drug found in the spleen” value amounted to 88±7%. For the same molecule, for the setting “p=0.77”, the “difference in total amount of drug found in the kidney” value is recorded as “no difference”.
